Experimental data: the supplement of paper PMC11061612

Key:
Experiment in all cases: combination Emax (second highest fraction inhibited in the dose matrix, 72 h); higher = more inhibition; extreme values may be limits of the assay
[1] = tested on: TGBC11TKB (Gastric Carcinoma)
How it was run: (§1)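 Cell lines in DMEM/F12 or RPMI with 10% FBS were plated in 1536-well plates, held 24 hours at 37°C, 5% CO2, then given two-drug dose matrices for 72 hours (DMSO typically 0.2%). Viability was read by CellTiter-Glo 2.0 luminescence and scaled as inhibition from 0 (vehicle wells) to 1 (blank wells). Combination Emax is the second-highest inhibition in the matrix; Bliss excess is observed combination effect minus expected EA + EB − EA·EB, EA and EB being single-agent effects.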

[2] = tested on: KP-2 (Pancreatic Carcinoma)
How it was run: as §1

[3] = tested on: KLE (Endometrial Carcinoma)
How it was run: as §1

[4] = tested on: HuP-T3 (Pancreatic Carcinoma)
How it was run: as §1

[5] = tested on: OCUB-M (Breast Carcinoma)
How it was run: as §1

NH-12 (Neuroblastoma) = tested on: NH-12 (Neuroblastoma)
How it was run: as §1

EW-3 (Ewing's Sarcoma) = tested on: EW-3 (Ewing's Sarcoma)
How it was run: as §1

EW-18 (Ewing's Sarcoma) = tested on: EW-18 (Ewing's Sarcoma)
How it was run: as §1

[6] = tested on: KYSE-50 (Esophageal Squamous Cell Carcinoma)
How it was run: as §1

[7] = tested on: KYSE-150 (Esophageal Squamous Cell Carcinoma)
How it was run: as §1

[8] = tested on: LC4-1 (B-Lymphoblastic Leukemia)
How it was run: as §1

[9] = tested on: EMC-BAC-2 (Non-Small Cell Lung Carcinoma)
How it was run: as §1

NB7 (Neuroblastoma) = tested on: NB7 (Neuroblastoma)
How it was run: as §1

[10] = tested on: NCI-H322M (Lung Adenocarcinoma)
How it was run: as §1

[11] = tested on: HSC-2 (Oral Cavity Carcinoma)
How it was run: as §1

[12] = tested on: NCI-N87 (Gastric Carcinoma)
How it was run: as §1

CCc1c2c(nc3ccc(O)cc13)-c1cc3c(c(=O)n1C2)COC(=O)[C@]3(O)CC [SN-38] + O=C(c1cc(Cc2n[nH]c(=O)c3ccccc23)ccc1F)N1CCN(C(=O)C2CC2)CC1 [Olaparib] (first compound max 0.3 µM, 7x7, partner max 10 µM)
combination Emax [1]: 0.792
combination Emax [2]: 0.55
combination Emax [3]: 0.453
combination Emax [4]: 0.683
combination Emax [5]: 0.922
combination Emax (NH-12 (Neuroblastoma)): 0.903
combination Emax (EW-3 (Ewing's Sarcoma)): 0.884
combination Emax (EW-18 (Ewing's Sarcoma)): 0.773
combination Emax [6]: 0.269
combination Emax [7]: 0.728
combination Emax [8]: 0.948
combination Emax [9]: 0.531
combination Emax (NB7 (Neuroblastoma)): 0.967
combination Emax [10]: 0.869
combination Emax [11]: 0.977
combination Emax [12]: 0.722
